These results are taken from ChEMBL document CHEMBL5365438, “2-Substituted 1,5-benzothiazepine-based HDAC inhibitors exert anticancer activities on human solid and acute myeloid leukemia cell lines” (Bioorg Med Chem, 2023).

Calls of active or inactive are those of the source. The rule behind the calls is not given here.

One test addresses Histone deacetylase. It is filed as subcellular, Homo sapiens, Nucleus. The settings on record: hela.
In test [1] the target is T1, Histone deacetylase (Homo sapiens) (UniProt Q13547+O15379+Q9UBN7+Q92769+Q9UQL6+Q8WUI4+Q9BY41+Q96DB2+P56524+Q9UKV0+Q969S8). Nature of the test: Inhibition of HDAC in human U-937 cells assessed as upregulation of acetyl alpha-tubulin level at 5 uM incubated for 24 hrs by immunoblotting analysis. Format: cell-based.
Test [2] concerns U-937. Nature of the test: Cytotoxicity against human U-937 cells assessed as cell death at 1 to 5 uM incubated for 24 hrs by PI staining based FACS analysis relative to control. It is filed as functional. The settings on record: dose 1-5 µM. On the technique in general: A flow cytometer gives signals particle by particle.
Test [3] concerns HCT-116. As to the kind of experiment: Induction of cell cycle arrest in human HCT-116 assessed as accumulation of cells in G2/M phase at 1 to 5 uM incubated for 24 hrs by FACS analysis relative to SAHA. It is filed as functional. The conditions noted are these: dose 1-5 µM.
Test [4] has as its system U-937. As to the kind of experiment: Induction of cell cycle arrest in human U-937 assessed as increase accumulation of cells in G2/M phase at 1 to 5 uM incubated for 24 hrs by FACS analysis. The conditions noted are these: dose 1-5 µM. It is filed as functional, cell-based.
Test [5] has as its target T1, Histone deacetylase (Homo sapiens). As to the kind of experiment: Inhibition of HDAC in human HCT-116 cells assessed as upregulation of acetyl alpha-tubulin level at 1 to 5 uM incubated for 24 hrs by immunoblotting analysis. It is filed as cell-based. The conditions noted are these: dose 1-5 µM. On the technique in general: In western blotting, separated proteins are transferred to a membrane and probed.

Test [6] relates to U-937. As to the kind of experiment: Induction of cell cycle arrest in human U-937 assessed as reduced accumulation of cells in S phase at 1 uM incubated for 24 hrs by FACS analysis. It is filed as functional, cell-based.
Test [7] relates to HCT-116. Nature of the test: Induction of apoptosis in human HCT-116 cells assessed as increased p21 protein expression level at 1 to 5 uM incubated for 24 hrs by immunoblotting analysis. It is filed as functional, cell-based. The conditions noted are these: dose 1-5 µM.
Test [8] relates to HCT-116. Nature of the test: Cytotoxicity against human HCT-116 cells assessed as cell death at 5 uM incubated for 24 hrs by PI staining based FACS analysis relative to control. It is filed as functional.
For test [9], the system named is HCT-116. As to the kind of experiment: Cytotoxicity against human HCT-116 cells assessed as reduction in cell death at 1 uM incubated for 24 hrs by PI staining based FACS analysis. Format: functional.
In test [10] the test system is U-937. As to the kind of experiment: Induction of apoptosis in human U-937 cells assessed as increased p21 protein expression level at 1 to 5 uM incubated for 24 hrs by immunoblotting analysis. It is filed as functional, cell-based. The settings on record: dose 1-5 µM.
For test [11], the system named is U-937. Nature of the test: Induction of cell cycle arrest in human U-937 assessed as decrease accumulation of cells in G1 phase at 5 uM incubated for 24 hrs by FACS analysis. Format: functional, cell-based.
The target in test [12] is T1, Histone deacetylase (Homo sapiens). Nature of the test: Inhibition of HDAC in human U-937 cells assessed as upregulation of histone H3 acetylation at lysine 14 residue at 5 uM incubated for 24 hrs by immunoblotting analysis. Format: cell-based.
The target is the same in test [13]. As to the kind of experiment: Inhibition of HDAC in human U-937 cells assessed as upregulation of histone H3 acetylation at lysine 14 residue at 1 uM incubated for 24 hrs by immunoblotting analysis. It is filed as cell-based.

One may read the IC50 as the concentration that inhibits the measured activity by half. Read a low IC50 as higher potency. For the compound `O=C(CCCCCN1C(=O)C[C@H](c2ccc(Cl)c(Cl)c2)Sc2ccccc21)NO`, the IC50 on Histone deacetylase worked out at 274.4 nM. Further, the outcome (in test [1]; with U-937 [2]; in the test on HCT-116 [3]; with U-937 [4]; in [5]; in the test with U-937 [6]) was Active. The outcome with HCT-116 [7], in the test with HCT-116 [9], with U-937 [10] and with U-937 [11] was Active. Moreover, the Activity with HCT-116 [8] worked out at 22%.

On to `Cc1ccc(C2CC(=O)N(CCCCCC(=O)NO)c3ccccc3S2)cc1` (racemic), for which, on Histone deacetylase, the IC50 was 123.4 nM. In addition, the outcome (in test [1]; with U-937 [2]; in the test with HCT-116 [3]; in the test on U-937 [4]; in test [5]; in the test with U-937 [6]) was Active. Further, the result (in the test on HCT-116 [7]; in [12]; in the test on HCT-116 [9]; in the test with U-937 [10]; in the test with U-937 [11]) was Active. The Activity with HCT-116 [8] was determined as 22%.

`O=C(CCCCCN1C(=O)CC(c2c3ccccc3cc3ccccc23)Sc2ccccc21)NO` (racemic) had an IC50 against Histone deacetylase of 246 nM. Further, the result (in test [1]; in the test on U-937 [2]; in the test with HCT-116 [3]; with U-937 [4]; in test [5]; in the test on U-937 [6]) was Active. For the same compound, the result (with HCT-116 [7]; in test [12]; in the test with HCT-116 [9]; with U-937 [10]; in the test on U-937 [11]) was Active. For the same compound, the Activity in the test with HCT-116 [8] is on record as 22%.

For `O=C(CCCCCN1C(=O)CC(c2ccccc2Cl)Sc2ccccc21)NO` (racemic), at Histone deacetylase, the IC50 amounted to 109.4 nM. For the same compound, the outcome (in [1]; in the test on U-937 [2]; with HCT-116 [3]; in the test on U-937 [4]; in test [5]; with U-937 [6]) was Active. Also, the outcome (in the test on HCT-116 [7]; in test [12]; with HCT-116 [9]; in the test with U-937 [10]; in the test on U-937 [11]) was Active. For the same compound, the Activity with HCT-116 [8] turned out to be 22%.

Consider `O=C(CCCCCN1C(=O)CC(c2cccc3ccccc23)Sc2ccccc21)NO` (racemic), for which the IC50 against Histone deacetylase is reported as 259.3 nM. For the same compound, the outcome (in [1]; in the test on U-937 [2]; in the test with HCT-116 [3]; in test [13]; with U-937 [4]; in test [5]) was Active. The outcome (with U-937 [6]; in the test on HCT-116 [7]; in test [12]; with HCT-116 [9]; with U-937 [10]; with U-937 [11]) was Active. Besides, in the test with HCT-116 [8], the Activity worked out at 22%.

Turning to `COc1ccc(C2CC(=O)N(CCCCCC(=O)NO)c3ccccc3S2)cc1` (racemic), on Histone deacetylase, the IC50 is 118.3 nM. The result (in [1]; in the test on U-937 [2]; with U-937 [4]; in [5]; in the test on U-937 [6]; in the test on HCT-116 [7]) was Active. The outcome (in test [12]; in the test with HCT-116 [9]; in the test on U-937 [10]; with U-937 [11]) was Active. Further, the Activity is recorded as approximately 75% in the test with HCT-116 [3] and 22% in the test on HCT-116 [8].
